Measurements as given in patent US20150087627A1, “COMBINATION OF KINASE INHIBITORS AND USES THEREOF” (Intellikine LLC, priority 2011, published 2015).

What was measured:
Format in all cases: biochemical
[1] = target: T1, PI3K α (p110α/p85α) (Homo sapiens, UniProt P42336); assay: PI 3-Kinase (human) HTRF assay, PI3K α; settings: read-out: PI3K α IC50
T1 construct: purchased Upstate / Millipore Corporation

[2] = target: T2, PI3K β (p110β/p85α) (Homo sapiens, UniProt P42338); assay: PI 3-Kinase (human) HTRF assay, PI3K β; settings: read-out: PI3K β IC50
T2 construct: purchased Upstate / Millipore Corporation
T2 sequence (P42338 whole entry): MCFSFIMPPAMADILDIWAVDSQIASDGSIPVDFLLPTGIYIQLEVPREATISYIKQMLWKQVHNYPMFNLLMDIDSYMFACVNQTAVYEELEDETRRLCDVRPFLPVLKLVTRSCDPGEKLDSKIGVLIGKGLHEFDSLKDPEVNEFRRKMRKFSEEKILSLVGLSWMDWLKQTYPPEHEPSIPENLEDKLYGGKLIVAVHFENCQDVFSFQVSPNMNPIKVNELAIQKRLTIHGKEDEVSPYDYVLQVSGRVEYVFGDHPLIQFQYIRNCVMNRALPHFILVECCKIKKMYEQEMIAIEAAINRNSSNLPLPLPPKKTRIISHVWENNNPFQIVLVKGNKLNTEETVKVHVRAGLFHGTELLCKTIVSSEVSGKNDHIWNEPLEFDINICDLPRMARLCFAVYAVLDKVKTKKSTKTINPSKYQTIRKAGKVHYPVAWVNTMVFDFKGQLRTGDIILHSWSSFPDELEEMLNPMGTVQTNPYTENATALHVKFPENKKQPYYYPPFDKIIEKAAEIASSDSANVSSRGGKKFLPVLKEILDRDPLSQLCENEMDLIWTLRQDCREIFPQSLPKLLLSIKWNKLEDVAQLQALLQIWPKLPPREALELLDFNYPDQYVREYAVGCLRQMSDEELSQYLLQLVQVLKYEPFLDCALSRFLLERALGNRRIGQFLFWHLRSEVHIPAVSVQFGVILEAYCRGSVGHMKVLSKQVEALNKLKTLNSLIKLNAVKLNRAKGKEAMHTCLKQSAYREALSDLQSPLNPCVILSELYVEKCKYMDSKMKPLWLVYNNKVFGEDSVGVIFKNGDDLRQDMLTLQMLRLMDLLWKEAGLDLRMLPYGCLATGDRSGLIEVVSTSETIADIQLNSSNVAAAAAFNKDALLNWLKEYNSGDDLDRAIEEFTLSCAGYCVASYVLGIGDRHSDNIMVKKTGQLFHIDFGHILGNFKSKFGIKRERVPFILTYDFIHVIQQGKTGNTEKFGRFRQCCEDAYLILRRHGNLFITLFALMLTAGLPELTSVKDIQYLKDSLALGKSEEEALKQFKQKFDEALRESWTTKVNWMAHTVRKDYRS
T2 sequence (P27986 whole entry partner): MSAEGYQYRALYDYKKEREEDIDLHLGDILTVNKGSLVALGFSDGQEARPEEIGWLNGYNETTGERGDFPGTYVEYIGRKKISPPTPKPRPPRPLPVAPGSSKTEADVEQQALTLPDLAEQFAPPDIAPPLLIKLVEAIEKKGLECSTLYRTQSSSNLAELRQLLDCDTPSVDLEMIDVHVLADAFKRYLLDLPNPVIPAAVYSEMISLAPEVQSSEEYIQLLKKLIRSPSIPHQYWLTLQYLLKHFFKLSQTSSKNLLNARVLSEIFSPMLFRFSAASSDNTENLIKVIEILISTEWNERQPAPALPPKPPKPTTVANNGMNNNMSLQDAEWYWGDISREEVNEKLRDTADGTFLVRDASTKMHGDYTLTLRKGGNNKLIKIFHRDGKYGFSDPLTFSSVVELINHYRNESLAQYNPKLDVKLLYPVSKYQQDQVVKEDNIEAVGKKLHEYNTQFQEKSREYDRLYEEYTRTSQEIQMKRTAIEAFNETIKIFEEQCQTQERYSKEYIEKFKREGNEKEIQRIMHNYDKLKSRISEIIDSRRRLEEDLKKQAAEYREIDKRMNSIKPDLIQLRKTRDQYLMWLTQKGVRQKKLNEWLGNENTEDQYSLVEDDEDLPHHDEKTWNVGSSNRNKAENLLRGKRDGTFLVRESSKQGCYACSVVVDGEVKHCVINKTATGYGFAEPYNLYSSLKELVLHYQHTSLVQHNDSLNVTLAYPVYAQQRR

[3] = target: T3, PI3K γ (p110γ) (Homo sapiens, UniProt P48736); assay: PI 3-Kinase (human) HTRF assay, PI3K γ; settings: read-out: PI3K γ IC50
T3 construct: purchased Upstate / Millipore Corporation
T3 sequence (P48736 whole entry): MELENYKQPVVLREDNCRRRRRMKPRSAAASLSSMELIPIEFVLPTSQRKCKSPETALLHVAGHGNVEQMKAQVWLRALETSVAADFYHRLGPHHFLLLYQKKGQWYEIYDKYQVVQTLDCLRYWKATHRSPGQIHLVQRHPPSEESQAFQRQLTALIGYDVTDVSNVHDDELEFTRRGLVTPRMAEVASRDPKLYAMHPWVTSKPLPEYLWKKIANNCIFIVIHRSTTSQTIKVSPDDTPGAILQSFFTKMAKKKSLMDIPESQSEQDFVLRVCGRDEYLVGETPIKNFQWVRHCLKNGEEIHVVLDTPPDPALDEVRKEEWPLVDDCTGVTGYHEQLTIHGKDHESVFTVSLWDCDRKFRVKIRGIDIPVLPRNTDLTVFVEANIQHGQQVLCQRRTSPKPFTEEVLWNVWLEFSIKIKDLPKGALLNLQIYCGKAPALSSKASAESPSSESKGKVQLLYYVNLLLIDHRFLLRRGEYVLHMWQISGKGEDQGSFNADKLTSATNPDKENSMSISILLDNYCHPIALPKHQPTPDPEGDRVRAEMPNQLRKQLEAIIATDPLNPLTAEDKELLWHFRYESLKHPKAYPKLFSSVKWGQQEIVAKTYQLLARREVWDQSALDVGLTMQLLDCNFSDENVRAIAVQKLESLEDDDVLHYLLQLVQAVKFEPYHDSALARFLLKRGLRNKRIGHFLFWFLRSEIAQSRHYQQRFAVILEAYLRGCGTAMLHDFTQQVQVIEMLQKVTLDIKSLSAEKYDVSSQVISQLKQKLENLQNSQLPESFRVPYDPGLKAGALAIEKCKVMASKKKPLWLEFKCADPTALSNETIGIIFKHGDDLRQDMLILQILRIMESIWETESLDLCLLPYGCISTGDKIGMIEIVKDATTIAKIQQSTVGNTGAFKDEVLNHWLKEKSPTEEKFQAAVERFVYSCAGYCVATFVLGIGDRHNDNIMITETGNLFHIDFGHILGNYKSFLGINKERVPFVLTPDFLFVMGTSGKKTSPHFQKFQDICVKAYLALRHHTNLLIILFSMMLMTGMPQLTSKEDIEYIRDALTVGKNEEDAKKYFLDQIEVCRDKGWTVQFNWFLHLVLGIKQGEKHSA

[4] = target: T4, PI3K δ (Homo sapiens, UniProt O00329); assay: PI 3-Kinase (human) HTRF assay, PI3K δ; settings: read-out: PI3K δ IC50
T4 construct: purchased Upstate / Millipore Corporation
T4 sequence (O00329 whole entry): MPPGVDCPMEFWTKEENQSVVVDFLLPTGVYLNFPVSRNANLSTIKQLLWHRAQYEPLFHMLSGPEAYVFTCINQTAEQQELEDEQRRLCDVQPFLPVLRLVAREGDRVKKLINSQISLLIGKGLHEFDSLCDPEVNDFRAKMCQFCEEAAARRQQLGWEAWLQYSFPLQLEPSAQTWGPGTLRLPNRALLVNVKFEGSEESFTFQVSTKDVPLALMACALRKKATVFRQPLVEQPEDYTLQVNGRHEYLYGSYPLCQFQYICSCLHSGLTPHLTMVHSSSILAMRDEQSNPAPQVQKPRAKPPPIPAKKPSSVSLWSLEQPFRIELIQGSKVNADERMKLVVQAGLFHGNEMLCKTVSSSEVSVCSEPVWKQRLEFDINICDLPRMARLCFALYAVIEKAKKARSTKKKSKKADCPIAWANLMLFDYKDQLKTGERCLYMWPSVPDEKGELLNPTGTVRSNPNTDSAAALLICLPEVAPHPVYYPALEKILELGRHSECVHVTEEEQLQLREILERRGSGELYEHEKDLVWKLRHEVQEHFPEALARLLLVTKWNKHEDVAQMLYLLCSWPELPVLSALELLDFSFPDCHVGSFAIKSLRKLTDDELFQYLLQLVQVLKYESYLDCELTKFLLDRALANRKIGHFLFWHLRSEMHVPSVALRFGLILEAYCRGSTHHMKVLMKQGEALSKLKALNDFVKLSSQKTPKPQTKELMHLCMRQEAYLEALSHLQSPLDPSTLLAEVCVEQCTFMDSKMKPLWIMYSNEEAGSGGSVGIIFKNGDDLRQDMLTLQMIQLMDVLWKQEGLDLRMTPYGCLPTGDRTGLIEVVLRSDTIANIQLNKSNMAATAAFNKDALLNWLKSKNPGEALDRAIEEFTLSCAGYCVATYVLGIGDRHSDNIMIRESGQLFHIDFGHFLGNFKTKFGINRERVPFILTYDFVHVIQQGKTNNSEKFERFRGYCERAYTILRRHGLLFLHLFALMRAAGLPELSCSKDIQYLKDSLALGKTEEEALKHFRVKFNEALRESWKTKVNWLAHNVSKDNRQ
T4 sequence (P27986 whole entry partner): as the sequence (P27986 whole entry partner) above

T1 sequence (P42336 whole entry): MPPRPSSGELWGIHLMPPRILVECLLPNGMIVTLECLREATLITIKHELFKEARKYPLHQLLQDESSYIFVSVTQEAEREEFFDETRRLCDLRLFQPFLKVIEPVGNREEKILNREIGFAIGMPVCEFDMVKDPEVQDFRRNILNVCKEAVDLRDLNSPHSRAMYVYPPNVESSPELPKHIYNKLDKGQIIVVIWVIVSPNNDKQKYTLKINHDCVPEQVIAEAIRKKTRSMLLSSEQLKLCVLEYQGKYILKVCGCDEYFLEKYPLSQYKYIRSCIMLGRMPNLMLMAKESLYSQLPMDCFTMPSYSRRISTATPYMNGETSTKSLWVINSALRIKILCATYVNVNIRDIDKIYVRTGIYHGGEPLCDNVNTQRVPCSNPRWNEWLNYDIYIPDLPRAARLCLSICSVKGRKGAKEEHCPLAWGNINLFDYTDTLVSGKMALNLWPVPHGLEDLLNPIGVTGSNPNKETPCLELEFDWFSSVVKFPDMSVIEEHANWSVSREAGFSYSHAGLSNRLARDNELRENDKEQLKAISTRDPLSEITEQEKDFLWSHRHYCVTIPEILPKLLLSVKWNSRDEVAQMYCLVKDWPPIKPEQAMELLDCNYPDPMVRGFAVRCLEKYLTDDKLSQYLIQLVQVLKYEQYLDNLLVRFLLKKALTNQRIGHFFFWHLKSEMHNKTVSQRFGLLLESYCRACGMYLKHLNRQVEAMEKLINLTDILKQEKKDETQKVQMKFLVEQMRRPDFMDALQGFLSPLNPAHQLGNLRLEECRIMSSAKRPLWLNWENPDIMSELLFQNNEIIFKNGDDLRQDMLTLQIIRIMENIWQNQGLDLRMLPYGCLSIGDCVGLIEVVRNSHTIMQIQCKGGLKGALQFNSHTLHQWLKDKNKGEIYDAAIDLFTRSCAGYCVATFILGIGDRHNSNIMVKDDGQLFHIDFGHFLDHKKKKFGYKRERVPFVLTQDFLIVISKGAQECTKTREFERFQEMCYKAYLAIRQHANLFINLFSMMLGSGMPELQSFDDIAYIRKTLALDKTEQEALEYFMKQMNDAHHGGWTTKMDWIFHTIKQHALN
T1 sequence (P27986 whole entry partner): as the sequence (P27986 whole entry partner) above

SMILES	IC50 [1] [nM]	IC50 [2] [µM]	IC50 [3] [µM]	IC50 [4] [µM]
Nc1nc2cc(-c3ccc4ncc(N5CC(N6CCCC6)C5)nc4c3)ccc2o1 [Compound 314]	< 1000	< 10	< 10	< 10
Nc1nc2cc(-c3ccc4ncc(C(=O)N(CCO)CCO)n4c3)ccc2o1 [Compound 316]	< 1000	< 10	< 10	> 10
Nc1nc2cc(-c3ccc4ncn(C(=O)N5CCOCC5)c4c3)ccc2o1 [Compound 317]	> 10000	> 10	> 10	> 10
Nc1nc2cc(-c3ccc4ncc(C(=O)N5CC5)n4c3)ccc2o1 [Compound 340]	< 1000	> 10	< 1	> 10
Nc1nc2cc(-c3ccc4ncc(N5CC(N6CCC(O)CC6)C5)nc4c3)ccc2o1 [Compound 341]	< 1000	> 10	< 10	< 10
Cc1nccn1C1CCN(c2cnc3ccc(-c4ccc5oc(N)nc5c4)cc3n2)CC1 [Compound 344]	< 100	< 10	< 10	< 1
Nc1nc2cc(-c3ccn4ncc(C(=O)N5CCOCC5)c4c3)ccc2o1 [Compound 347]	< 1000	< 10	< 1	> 10
Cc1cc2oc(N)nc2cc1-c1ccc2ncc(N3CCN[C@@H](C)C3)nc2c1 [Compound 351]	< 10000	< 1	> 10	> 10
C[C@@H]1CN(C2CN(c3cnc4ccc(-c5ccc6oc(N)nc6c5)cc4n3)C2)CCN1 [Compound 355]	< 100	< 10	< 10	< 1
Nc1nc2cc(-c3ccn4ncc(-c5ccncc5)c4c3)ccc2o1 [Compound 356]	< 100	< 0.1	< 0.1	< 0.1
Cc1c(-c2ccc3ncc(N4CC(N5CCOCC5)C4)nc3c2)ccc2oc(N)nc12 [Compound 362]	> 10000	> 10	> 10	> 10
C[C@H]1CN(c2cnc3ccc(-c4cccc5c(N)noc45)cc3n2)CCN1 [Compound 363]	> 10000	> 10	> 10	> 10

Further lines, results first:

IC50 [1] [nM]	IC50 [2] [µM]	IC50 [3] [µM]	IC50 [4] [µM]	SMILES
< 1000	< 10	< 0.1	< 1	CC(=O)Nc1nc(C)c(-c2ccc3oc(N)nc3c2)s1 [Compound 312]
< 100	< 1	< 1	< 10	Nc1nc2cc(-c3ccc4ncc(N5CC(n6ccnc6)C5)nc4c3)ccc2o1 [Compound 319]
< 100	< 10	< 10	< 10	Nc1nc2cc(-c3ccc4ncc(N5CC(N6CCS(=O)(=O)CC6)C5)nc4c3)ccc2o1 [Compound 334]
< 100	> 10	< 1	> 10	Nc1nc2cc(-c3ccc4ncc(N5CCC(n6cccn6)CC5)nc4c3)ccc2o1 [Compound 337]
< 100	< 10	< 10	< 10	Cc1cn(C2CCN(c3cnc4ccc(-c5ccc6oc(N)nc6c5)cc4n3)CC2)cn1 [Compound 338]
< 100	< 1	< 1	< 1	Cc1cn(C2CN(c3cnc4ccc(-c5ccc6oc(N)nc6c5)cc4n3)C2)cn1 [Compound 339]
< 100	< 1	< 0.1	< 10	Nc1nc2cc(-c3ccc4ncc(C(=O)N5CCOCC5)n4c3)cc(Cl)c2o1 [Compound 359]
< 100	< 1	< 0.1	< 10	Nc1nc2cc(-c3ccc4ncc(C(=O)N5CCOCC5)n4c3)cc(F)c2o1 [Compound 360]
< 100	< 1	< 1	< 10	Nc1nc2cc(-c3ccc4ncc(N5CC(N6CCOCC6)C5)nc4c3)cc(F)c2o1 [Compound 361]
